Legend:
[1] = system: OATs; test: in vitro; conditions: human, Caco-2, ER, Caco-2, 2 μM, + Cimetidine 0.05 mM (OATs)
Method: (§1) Caco-2, MDCK and MDCK-MRP2 cells were donated by Prof. Yan Xie and Yueming Ma from Shanghai University of Traditional Chinese Medicine. The cells were grown in culture dishes (Corning® Costar, Cambridge, MA, USA) using DMEM supplemented with 10% FBS, 1% NEAA and 1% penicillin-streptomycin solution. The cells were cultured in 5% CO2 and […] with 90% relative humidity at 37°C. The medium was replaced every other day during incubation. The cells were passaged every 3–4 days between 70 and 80% confluence at a 1:5 split ratio using 0.25% trypsin-EDTA. For the transport experiments, the cells from passages between 30 and 45 were seeded at 1 × 10^5 cells/cm^2 onto permeable polycarbonate inserts (0.45 μm pore size, seeding surface of 0.6 cm^2, Millipore, MA, USA) in 24-well plastic plates. The media in the culture plates were changed every other day for the first week after seeding and were replaced daily afterward. […] The cells were used for the transport experiments 21–28 (Caco-2) or 5–7 (MDCK and MDCK-MRP2) days after seeding, and only monolayers with a TEER-value above 420 Ω cm^2 were used during the studies.
(§2) The apical (AP) and basolateral (BL) sides are typical of polarized Caco-2, MDCK and MDCK-MRP2 epithelial cells. Before the experiments, the polarized cell monolayers were washed twice with warm HBSS solution and subsequently preincubated (37°C, 30 min). Afterward, HBSS solution on both sides of the cell monolayers was removed using a mini desktop vacuum pump. […] The final DMSO concentration in the HBSS or drug mixture was below 0.5%. The monolayers were incubated at 37°C, and 100 μL samples were taken at 30, 60, 90, and 120 min from the acceptor compartment and immediately replaced with the same volume of prewarmed fresh blank HBSS. TEER measurements for assessing the membrane integrity took place before and after the experiments.
(§3) The apparent permeability coefficients (Papp) and ER were calculated as Equations (2) and (3): […]
(§4) where dQ/dt is the steady-state flux, A is the membrane surface area, and C0 is the initial drug concentration in the donor compartment. PappBA is the Papp-value measured in BL to AP direction and PappAB is the Papp-value measured in AP to BL direction. It indicated the involvement of an active transport process when the ER-value is above 1.5 (Hubatsch et al., [2007]).

[2] = system: PEPT1; test: in vitro; conditions: human, Caco-2, ER, Caco-2, 2 μM, + Gly-Sar 10 mM (PEPT1)
Method: as §1, §2, §3, §4

[3] = system: Caco-2 cell monolayers; test: in vitro
Method: as §1, §2, §3, §4

[4] = system: MRP2; test: in vitro; conditions: human, Caco-2, ER, Caco-2, 2 μM
Method: as §1, §2, §3, §4

[5] = system: OATPs; test: in vitro; conditions: human, Caco-2, ER, Caco-2, 2 μM, + ES 0.05 mM (OATPs)
Method: as §1, §2, §3, §4

[6] = in vitro
Method: as §1, §2, §3, §4

[7] = system: MDCK cell monolayers; test: in vitro; conditions: 2 μM
Method: as §1, §2, §3, §4

[8] = system: BCRP; test: in vitro; conditions: human, Caco-2, ER, Caco-2, 2 μM
Method: as §1, §2, §3, §4

[9] = design: method as in Zhang, 2013; Shi et al., 2014; conditions: dogs, oral total alkaloid extracts from P. harmala 140 mg/kg; ref Zhang, 2013; Shi et al., 2014; cited from earlier work
[10] = Caco-2, 2 μM, + Apigenin 0.025 mM (BCRP)
[11] = Caco-2, 2 μM, + Cimetidine 0.05 mM (OATs)
[12] = Caco-2, 2 μM, + ES 0.05 mM (OATPs)
[13] = Caco-2, 2 μM, + Gly-Sar 10 mM (PEPT1)
[14] = Caco-2, 2 μM, + Ko143 0.01 mM (BCRP)
[15] = Caco-2, 2 μM, + MK571 0.05 mM (MRP2)
[16] = Caco-2, 2 μM, + NaN3 10 mM (ATP)
[17] = Caco-2, 2 μM, + Phloretin 0.3 mM (MCTs)
[18] = Caco-2, 2 μM, + Phloridzin 0.5 mM (SGLT1)
[19] = Caco-2, 2 μM, + Probenecid 0.2 mM (MRP2)
[20] = Caco-2, 2 μM, + Quinidine 0.1 mM (MDR1)
[21] = Caco-2, 2 μM, + TEA 5 mM (OCTs/OCTNs)
[22] = Caco-2, 2 μM, + Verapamil 0.1 mM (MDR1)
[23] = Caco-2, 2 μM, Control (no inhibitor or substrate)
[24] = Caco-2, 2 μM, Control (pH 7.4, 37°C, without EDTA)
[25] = Control (pH 7.4, 37°C, without EDTA)
[26] = with EDTA 5 mM, listed as harmaline

## COc1ccc2c3c([nH]c2c1)C(C)=NCC3 [Harmaline]
[1]
  efflux ratio: 0.97
[2]
  efflux ratio: 0.95
[3]; Caco-2, 2 μM
  PappAB at pH 7.4 relative to pH 5.5: 3.65 folds
[3]; Caco-2, 2 μM, 4°C
  PappAB: 7.59 ± 0.33^*** 1 × 10^−6 cm/s
[3]; Caco-2, 2 μM, 4°C, listed as harmaline
  PappAB: 7.59 ± 0.33 1 × 10^−6 cm/s
[3]; [10]
  Modulatory effect: −
  PappAB: 27.85 ± 2.09 1 × 10^−6 cm/s
  PappBA: 26.04 ± 1.43 1 × 10^−6 cm/s
[3]; [11]
  Modulatory effect: −
  PappBA: 26.16 ± 1.79 1 × 10^−6 cm/s
[3]; [12]
  Modulatory effect: +
  PappAB: 24.33 ± 0.49 1 × 10^−6 cm/s
  PappBA: 26.41 ± 0.94 1 × 10^−6 cm/s
[3]; [13]
  Modulatory effect: −
  PappAB: 27.73 ± 0.95 1 × 10^−6 cm/s
  PappBA: 26.31 ± 1.18 1 × 10^−6 cm/s
[3]; [14]
  Modulatory effect: −
  PappBA: 26.15 ± 0.48 1 × 10^−6 cm/s
[3]; [15]
  Modulatory effect: −
  PappAB: 27.90 ± 1.31 1 × 10^−6 cm/s
  PappBA: 25.82 ± 0.71 1 × 10^−6 cm/s
[3]; [16]
  Modulatory effect: +
  PappAB: 22.75 ± 2.68^* 1 × 10^−6 cm/s
  PappBA: 26.18 ± 1.02 1 × 10^−6 cm/s
[3]; [17]
  Modulatory effect: −
  PappAB: 27.77 ± 2.14 1 × 10^−6 cm/s
  PappBA: 26.25 ± 0.91 1 × 10^−6 cm/s
[3]; [18]
  Modulatory effect: −
  PappAB: 27.57 ± 2.40 1 × 10^−6 cm/s
  PappBA: 26.07 ± 1.60 1 × 10^−6 cm/s
[3]; [19]
  Modulatory effect: −
  PappAB: 27.22 ± 1.04 1 × 10^−6 cm/s
  PappBA: 26.10 ± 1.02 1 × 10^−6 cm/s
[3]; [20]
  Modulatory effect: −
  PappAB: 27.54 ± 1.35 1 × 10^−6 cm/s
  PappBA: 26.44 ± 1.47 1 × 10^−6 cm/s
[3]; Caco-2, 2 μM, + Sodium vanadate 0.05 mM (Na^+)
  Modulatory effect: +
[3]; [21]
  Modulatory effect: +
  PappBA: 26.75 ± 1.58 1 × 10^−6 cm/s
[3]; [22]
  Modulatory effect: −
  PappAB: 27.32 ± 1.33 1 × 10^−6 cm/s
  PappBA: 25.68 ± 1.55 1 × 10^−6 cm/s
[3]; [23]
  PappAB: 27.48 ± 0.18 1 × 10^−6 cm/s
  PappBA: 26.19 ± 4.02 1 × 10^−6 cm/s
[3]; [24]
  PappAB: 27.72 ± 1.06 1 × 10^−6 cm/s
  PappBA: 26.42 ± 0.49 1 × 10^−6 cm/s
[3]; Caco-2, 2 μM, with EDTA 5 mM
  PappAB: 35.23 ± 2.68^* 1 × 10^−6 cm/s
  PappBA: 39.57 ± 2.10^* 1 × 10^−6 cm/s
[3]; Caco-2, initial concentration 2 μM
  PappAB: 27.72 ± 1.06 1 × 10^−6 cm/s
[3]; Caco-2 and MDCK, 1, 2, and 5 μM
  ER-values at the tested concentrations: < 1.5
[4]; + MK571 0.05 mM (MRP2)
  efflux ratio: 0.93
[4]; + Probenecid 0.2 mM (MRP2)
  efflux ratio: 0.96
[5]
  efflux ratio: 1.12
[6]; dog, MDCK, ER, 2 μM, 4°C
  efflux ratio: 1.23
[6]; dog, MDCK, ER, 2 μM, with EDTA 5 mM
  efflux ratio: 0.9
[6]; dog, MDCK, ER, initial concentration 1 μM
  efflux ratio: 1.23
[6]; dog, MDCK, ER, initial concentration 2 μM
  efflux ratio: 1.03
[6]; dog, MDCK, ER, initial concentration 5 μM
  efflux ratio: 1.16
[6]; dog, MDCK, PappAB, initial concentration 1 μM
  Papp A→B: 15.8 ± 1.76 ×10⁻⁶ cm/s
[6]; dog, MDCK, PappAB, initial concentration 2 μM
  Papp A→B: 20.4 ± 1.82 ×10⁻⁶ cm/s
[6]; dog, MDCK, PappAB, initial concentration 5 μM
  Papp A→B: 21.2 ± 1.32 ×10⁻⁶ cm/s
[6]; dog, MDCK, PappBA, initial concentration 1 μM
  Papp B→A: 19.5 ± 2.25 ×10⁻⁶ cm/s
[6]; dog, MDCK, PappBA, initial concentration 2 μM
  Papp B→A: 21 ± 2.11 ×10⁻⁶ cm/s
[6]; dog, MDCK, PappBA, initial concentration 5 μM
  Papp B→A: 24.5 ± 2.54 ×10⁻⁶ cm/s
[6]; dog, MDCK, pH 5.5, ER, 2 μM, pH 5.5
  efflux ratio: 1.18
[6]; dog, MDCK, pH 5.5, PappAB, 2 μM, pH 5.5
  Papp A→B: 13 ± 2.54 ×10⁻⁶ cm/s
[6]; dog, MDCK, pH 5.5, PappBA, 2 μM, pH 5.5
  Papp B→A: 15.4 ± 0.91 ×10⁻⁶ cm/s
[6]; dog, MDCK, pH 7.4, ER, 2 μM, Control (pH 7.4, 37°C, without EDTA)
  efflux ratio: 1.03
[6]; human, Caco-2, ER, Caco-2, 2 μM, 4°C
  efflux ratio: 1.15
[6]; human, Caco-2, ER, Caco-2, 2 μM, Control (no inhibitor or substrate)
  efflux ratio: 0.95
[6]; human, Caco-2, ER, Caco-2, 2 μM, with EDTA 5 mM
  efflux ratio: 1.12
[6]; human, Caco-2, ER, Caco-2, initial concentration 1 μM
  efflux ratio: 0.93
[6]; human, Caco-2, ER, Caco-2, initial concentration 2 μM
  efflux ratio: 0.95
[6]; human, Caco-2, ER, Caco-2, initial concentration 5 μM
  efflux ratio: 1.03
[6]; human, Caco-2, PappAB, Caco-2, initial concentration 1 μM
  Papp A→B: 27.4 ± 1.44 ×10⁻⁶ cm/s
[6]; human, Caco-2, PappAB, Caco-2, initial concentration 5 μM
  Papp A→B: 30.1 ± 3.01 ×10⁻⁶ cm/s
[6]; human, Caco-2, PappBA, Caco-2, 2 μM, 4°C
  Papp B→A: 8.71 ± 1.83 ×10⁻⁶ cm/s
[6]; human, Caco-2, PappBA, Caco-2, initial concentration 1 μM
  Papp B→A: 25.6 ± 1.95 ×10⁻⁶ cm/s
[6]; human, Caco-2, PappBA, Caco-2, initial concentration 2 μM
  Papp B→A: 26.4 ± 0.49 ×10⁻⁶ cm/s
[6]; human, Caco-2, PappBA, Caco-2, initial concentration 5 μM
  Papp B→A: 31 ± 1.4 ×10⁻⁶ cm/s
[6]; human, Caco-2, pH 5.5, ER, Caco-2, 2 μM, pH 5.5
  efflux ratio: 0.88
[6]; human, Caco-2, pH 5.5, PappAB, Caco-2, 2 μM, pH 5.5
  Papp A→B: 7.6 ± 0.74 ×10⁻⁶ cm/s
[6]; human, Caco-2, pH 5.5, PappBA, Caco-2, 2 μM, pH 5.5
  Papp B→A: 6.72 ± 0.76 ×10⁻⁶ cm/s
[6]; human, Caco-2, pH 7.4, ER, Caco-2, 2 μM, Control (pH 7.4, 37°C, without EDTA)
  efflux ratio: 0.95
[7]
  PappAB at 37°C relative to 4°C: 3.77 folds
  PappAB at pH 7.4 relative to pH 5.5: 1.56 folds
[7]; 4°C
  PappAB: 5.40 ± 0.99^*** 1 × 10^−6 cm/s
  PappBA: 6.65 ± 0.64^*** 1 × 10^−6 cm/s
[7]; [25]
  PappAB: 20.36 ± 1.82 1 × 10^−6 cm/s
  PappBA: 21.03 ± 2.11 1 × 10^−6 cm/s
[7]; with EDTA 5 mM
  PappAB: 29.43 ± 1.45^* 1 × 10^−6 cm/s
  PappBA: 26.34 ± 0.93^* 1 × 10^−6 cm/s
[7]; [26]
  PappAB: 29.43 ± 1.45 1 × 10^−6 cm/s
  PappBA: 26.34 ± 0.93 1 × 10^−6 cm/s
[8]; + Apigenin 0.025 mM (BCRP)
  efflux ratio: 0.94
[8]; + Ko143 0.01 mM (BCRP)
  efflux ratio: 0.93
[9]
  F-value (absolute bioavailability): 24.99%
